According to ChEMBL document CHEMBL3286126, “Synthesis of novel β-carboline based chalcones with high cytotoxic activity against breast cancer cells” (Bioorg Med Chem Lett, 2014):
pIC50: −log10 of the molar value. Calls of active or inactive are those of the source. The rule behind the calls is not given here.

Assays:
[1] = Cytotoxicity against human MIAPaCa2 cells at 10 uM after 48 hrs by SRB assay; type: functional; conditions: MIA PaCa-2, 48 h
[2] = Cytotoxicity against human PLC/PRF/5 cells at 10 uM after 48 hrs by SRB assay; type: functional; conditions: PLC-PRF-5, 48 h
SK-OV-3 [3] = assay: Cytotoxicity against human SKOV3 cells at 10 uM after 48 hrs by SRB assay; type: functional; conditions: SK-OV-3, 48 h
DU-145 = assay: Cytotoxicity against human DU145 cells at 10 uM after 48 hrs by SRB assay; type: functional; conditions: DU-145, 48 h
[4] = Cytotoxicity against human A172 cells at 10 uM after 48 hrs by SRB assay; type: functional; conditions: A 172, 48 h
A549 [5] = assay: Cytotoxicity against human A549 cells at 10 uM after 48 hrs by SRB assay; type: functional; conditions: A549, 48 h
MCF7 [6] = assay: Cytotoxicity against human MCF7 cells at 10 uM after 48 hrs by SRB assay; type: functional; conditions: MCF7, 48 h
[7] = Cytotoxicity against human DLD1 cells at 10 uM after 48 hrs by SRB assay; type: functional; conditions: DLD-1, 48 h
[8] = Cytotoxicity against human A172 cells after 48 hrs by SRB assay; type: functional, cell-based; conditions: A 172, 48 h
MCF7 [9] = assay: Cytotoxicity against human MCF7 cells after 48 hrs by SRB assay; type: functional, cell-based; conditions: for pIC50: MCF7, 48 h
A549 [10] = assay: Cytotoxicity against human A549 cells after 48 hrs by SRB assay; type: functional, cell-based; conditions: A549, 48 h
PC-3 = assay: Cytotoxicity against human PC3 cells after 48 hrs by SRB assay; type: functional, cell-based; conditions: PC-3, 48 h
SK-OV-3 [11] = assay: Cytotoxicity against human SKOV3 cells after 48 hrs by SRB assay; type: functional, cell-based; conditions: SK-OV-3, 48 h
Vero = assay: Cytotoxicity against African green monkey Vero cells after 48 hrs by SRB assay; type: cell-based; conditions: Chlorocebus sabaeus
4T1 = assay: Cytotoxicity against mouse 4T1 cells after 48 hrs by SRB assay; type: functional, cell-based
MDA-MB-231 = assay: Cytotoxicity against human MDA-MB-231 cells after 48 hrs by SRB assay; type: functional, cell-based
MCF7 [12] = assay: Induction of apoptosis in human MCF7 cells assessed as necrotic cells after 24 hrs using 7-AAD/annexin-V staining by flow cytometry analysis; type: functional
MCF7 [13] = assay: Induction of apoptosis in human MCF7 cells assessed as viable cells after 24 hrs using 7-AAD/annexin-V staining by flow cytometry analysis; type: functional
MCF7 [14] = assay: Induction of apoptosis in human MCF7 cells assessed as late apoptotic cells after 24 hrs using 7-AAD/annexin-V staining by flow cytometry analysis; type: functional
MCF7 [15] = assay: Induction of apoptosis in human MCF7 cells assessed as early apoptotic cells after 24 hrs using 7-AAD/annexin-V staining by flow cytometry analysis; type: functional
MCF7 [16] = assay: Induction of apoptosis in human MCF7 cells assessed as DNA fragmentation at 10 uM after 24 hrs […] by APOBrdU TUNNEL assay; type: functional, cell-based

Row | SMILES | inhibition at 10 µM [1] [%] | inhibition at 10 µM [2] [%] | inhibition at 10 µM (SK-OV-3 [3]) [%] | inhibition at 10 µM (DU-145) [%] | inhibition at 10 µM [4] [%] | inhibition at 10 µM (A549 [5]) [%] | inhibition at 10 µM (MCF7 [6]) [%] | inhibition at 10 µM [7] [%] | other results
1 | CCn1c2ccccc2c2ccnc(/C=C/C(=O)c3cc(OC)c(OC)c(OC)c3)c21 | 24.7 | 70.7 | 68.5 | 60.1 | 81.1 | 44.4 | 32.7 | 73.4 | –
2 | COc1cccc2c1C(=O)c1c(O)c3c(c(O)c1C2=O)C[C@@](O)(C(=O)CO)C[C@@H]3O[C@H]1C[C@H](N)[C@H](O)[C@H](C)O1 [DOXORUBICIN] | 85.1 | 90.7 | 69.2 | 73.9 | 67.6 | 69 | 56.9 | 73.2 | –
3 | CCn1c2ccccc2c2ccnc(/C=C/C(=O)c3ccc(OC)cc3)c21 | 9.18 | 61.6 | 43.7 | 52.5 | 39.2 | 21.2 | 27.2 | 55.5 | –
4 | COc1ccc(C(=O)/C=C/c2nccc3c2[nH]c2ccccc23)cc1OC | 87.5 | 78.3 | 41.6 | 71.9 | 74.3 | 84.7 | 94.5 | 88.1 | pIC50 [8]: 5.48; Activity (MCF7 [9]): Dose-dependent effect; pIC50 (MCF7 [9]): 5.65; pIC50 (A549 [10]): 5.64; pIC50 (PC-3): 5.22; pIC50 (SK-OV-3 [11]): < 5.00; pIC50 (Vero): < 5.00; Activity (4T1): Dose-dependent effect; Activity (MDA-MB-231): Dose-dependent effect; Activity (MCF7 [12]): 3.12%; Activity (MCF7 [13]): 37%; Activity (MCF7 [14]): 39.5%; Activity (MCF7 [15]): 20.4%; Activity (MCF7 [16]): Active
5 | O=C(/C=C/c1nccc2c1[nH]c1ccccc12)c1ccc(Br)cc1 | -4.72 | 26.4 | -2.43 | -0.24 | 5.41 | 9.19 | 7.15 | 14.9 | –
6 | COc1ccc(C(=O)/C=C/c2nccc3c4ccccc4n(C)c23)cc1OC | 7.71 | 42.4 | 68.7 | 34.1 | 15.5 | 19.6 | 12.9 | 45.3 | –
7 | Cc1ccc(C(=O)/C=C/c2nccc3c4ccccc4n(C)c23)cc1 | 13.7 | 32.2 | 46.2 | 45.7 | 19.2 | 13.2 | 20.8 | 35.8 | –
8 | CCn1c2ccccc2c2ccnc(/C=C/C(=O)c3ccc(OC)c(OC)c3)c21 | 15.3 | 56.2 | 57.6 | 56.8 | 70.1 | 35.6 | 29.6 | 66 | –
9 | COc1cc(C(=O)/C=C/c2nccc3c2[nH]c2ccccc23)cc(OC)c1OC | 84.8 | 73.9 | 36.6 | 76.1 | 65 | 73.4 | 86.8 | 80.6 | pIC50 [8]: < 5.00; Activity (MCF7 [9]): Dose-dependent effect; pIC50 (MCF7 [9]): 5.48; pIC50 (A549 [10]): 5.27; pIC50 (PC-3): < 5.00; pIC50 (SK-OV-3 [11]): < 5.00; pIC50 (Vero): < 5.00; Activity (4T1): Dose-dependent effect; Activity (MDA-MB-231): Dose-dependent effect
10 | COc1ccc(C(=O)/C=C/c2nccc3c2[nH]c2ccccc23)cc1 | 33.7 | 70.8 | 33.9 | 61.9 | 77.2 | 29.2 | 37.2 | 74.2 | –
